Assays:
CDK8 [1] = target: T1, CDK8 (Homo sapiens, UniProt P49336); assay: LANTHASCREEN Eu Kinase Binding Assay (competitive kinase binding, Tracer displacement); design: purchased INVITROGEN; settings: displacing the Tracer from binding to the target kinase; read-out: Enzyme IC50
Procedure: The biological activities of the compounds of the present application can be assessed through a variety of methods known in the art. […] The changes in the signal produced by the reporting ligand when the compound is present relative when the compound is absent are recorded, which are calculated to provide the IC50 of the compound. Compounds of the present application were tested in a competitive kinase binding assay by using commercially available assay system. For example, LANTHASCREEN© Eu Kinase Binding Assay (INVITROGEN™) was used to measure the IC50 of the compounds of the present application in displacing the Tracer from binding to the target kinase, by following the assay protocol from INVITROGEN™.
Target sequence in this assay (P49336 whole entry): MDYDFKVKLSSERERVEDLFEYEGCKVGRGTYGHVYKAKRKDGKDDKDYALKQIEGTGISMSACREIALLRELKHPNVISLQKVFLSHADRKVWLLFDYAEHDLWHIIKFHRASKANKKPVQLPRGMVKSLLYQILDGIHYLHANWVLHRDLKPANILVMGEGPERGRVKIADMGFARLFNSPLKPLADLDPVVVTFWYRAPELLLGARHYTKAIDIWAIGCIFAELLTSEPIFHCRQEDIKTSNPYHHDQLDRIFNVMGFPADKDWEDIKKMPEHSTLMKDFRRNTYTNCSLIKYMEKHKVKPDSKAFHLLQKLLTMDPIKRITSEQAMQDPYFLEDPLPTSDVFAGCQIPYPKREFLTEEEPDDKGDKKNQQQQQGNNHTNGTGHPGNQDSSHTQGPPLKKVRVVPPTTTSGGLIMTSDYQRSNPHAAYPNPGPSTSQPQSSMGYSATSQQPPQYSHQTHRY
Target sequence in this assay (P24863 whole entry partner): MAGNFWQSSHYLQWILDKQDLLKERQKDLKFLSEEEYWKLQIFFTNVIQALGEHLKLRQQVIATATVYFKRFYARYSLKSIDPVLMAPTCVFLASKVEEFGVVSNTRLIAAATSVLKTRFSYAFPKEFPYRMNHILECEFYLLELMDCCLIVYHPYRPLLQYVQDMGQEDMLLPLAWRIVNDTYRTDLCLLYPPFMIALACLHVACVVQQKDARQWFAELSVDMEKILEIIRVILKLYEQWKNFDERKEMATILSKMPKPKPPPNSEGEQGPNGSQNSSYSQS

[2] = test system: phosphorylation of S727-STAT1, a known CDK8 substrate, in HepG2 cells; assay: Western blot of pS727-STAT1 in IFNγ-treated HepG2 cells; format: cell-based; settings: 18 h with IFNγ, Compound 33 at 0.5, 1 or 5 μM, DCA at 0.1 or 1 μM
Procedure: FIG. 1 is a Western blot illustrating inhibition of phosphorylation of 5727-STAT1, a known CDK8 substrate, to form pS727-STAT1. pS727-STAT1 and total STAT1 were from HepG2 cells independently treated for 18 h with interferon gamma (IFNγ) and 0.5 μM, 1 μM, or 5 μM Compound 33, or with IFNγ and 0.1 μM or 1 μM dehydrocortistatin A (“DCA”).

panel of 468 kinases = assay: KINOMESCAN binding analysis, panel of 468 kinases; settings: 10 μM
Procedure: (§1) The KINOMESCAN® was performed with binding assays of Compound 33 against a panel of 468 kinases at a concentration of 10 μM.
(§2) To evaluate the kinase selectivity of compounds of the application, KINOMESCAN® binding analysis against a panel of 468 kinases at a concentration of 10 μM was conducted.

CDK19 = CDK19 (Homo sapiens, UniProt Q9BWU1); assay: KINOMESCAN binding analysis
Procedure: as §1, §2

CDK8 [3] = target: T1, CDK8; assay: KINOMESCAN binding analysis
Procedure: as §1, §2
Target sequence in this assay (P49336 whole entry): as the sequence (P49336 whole entry) above

NEK1 [4] = target: T2, NEK1 (Homo sapiens, UniProt Q96PY6); assay: KINOMESCAN binding analysis
T2 sequence (Q96PY6 1-1258): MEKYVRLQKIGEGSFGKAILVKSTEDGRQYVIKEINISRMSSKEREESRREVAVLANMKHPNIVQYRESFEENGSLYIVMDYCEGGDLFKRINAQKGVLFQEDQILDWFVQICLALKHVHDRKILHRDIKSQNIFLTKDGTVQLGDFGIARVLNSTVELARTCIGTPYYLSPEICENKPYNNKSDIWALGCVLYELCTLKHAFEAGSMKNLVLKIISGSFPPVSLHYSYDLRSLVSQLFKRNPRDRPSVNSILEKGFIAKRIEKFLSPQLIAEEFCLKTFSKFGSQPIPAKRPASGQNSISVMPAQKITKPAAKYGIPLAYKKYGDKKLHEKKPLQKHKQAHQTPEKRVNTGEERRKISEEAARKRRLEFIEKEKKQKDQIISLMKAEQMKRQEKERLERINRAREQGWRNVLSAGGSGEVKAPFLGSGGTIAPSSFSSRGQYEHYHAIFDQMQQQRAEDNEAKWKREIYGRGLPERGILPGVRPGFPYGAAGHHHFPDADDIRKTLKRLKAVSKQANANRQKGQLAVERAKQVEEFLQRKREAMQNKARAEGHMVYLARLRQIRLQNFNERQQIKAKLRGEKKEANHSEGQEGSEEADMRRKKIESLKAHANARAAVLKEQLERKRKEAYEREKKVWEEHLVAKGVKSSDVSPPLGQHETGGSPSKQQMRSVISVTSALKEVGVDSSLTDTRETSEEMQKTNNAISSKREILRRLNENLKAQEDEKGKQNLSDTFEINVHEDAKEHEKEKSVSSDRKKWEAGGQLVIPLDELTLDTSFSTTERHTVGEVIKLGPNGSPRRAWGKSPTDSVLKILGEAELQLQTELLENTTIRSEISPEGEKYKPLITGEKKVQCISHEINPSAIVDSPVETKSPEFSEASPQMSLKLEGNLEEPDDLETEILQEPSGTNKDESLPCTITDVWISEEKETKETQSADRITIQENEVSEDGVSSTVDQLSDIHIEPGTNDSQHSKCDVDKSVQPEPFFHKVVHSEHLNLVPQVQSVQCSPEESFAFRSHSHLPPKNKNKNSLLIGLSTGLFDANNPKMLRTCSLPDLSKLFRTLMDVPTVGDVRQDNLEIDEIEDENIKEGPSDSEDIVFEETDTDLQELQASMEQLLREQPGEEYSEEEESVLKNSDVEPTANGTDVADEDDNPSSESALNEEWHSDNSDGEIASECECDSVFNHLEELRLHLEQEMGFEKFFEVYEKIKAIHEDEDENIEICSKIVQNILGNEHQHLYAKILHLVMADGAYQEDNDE
Procedure: as §1, §2

PIKFYVE = PIKFYVE (Homo sapiens, UniProt Q9Y2I7); assay: KINOMESCAN binding analysis
Procedure: as §1, §2

NEK1 [5] = target: T2, NEK1; assay: Dose-response analysis of NEK1; format: biochemical
CDK8 [6] = target: T1, CDK8; assay: CDK8 IC50 stated for DCA; format: biochemical; design: purchased INVITROGEN
Target sequence in this assay (P49336 whole entry): as the sequence (P49336 whole entry) above
Target sequence in this assay (P24863 whole entry partner): as the sequence (P24863 whole entry partner) above

PIKFYVE, sequence (Q9Y2I7 whole entry): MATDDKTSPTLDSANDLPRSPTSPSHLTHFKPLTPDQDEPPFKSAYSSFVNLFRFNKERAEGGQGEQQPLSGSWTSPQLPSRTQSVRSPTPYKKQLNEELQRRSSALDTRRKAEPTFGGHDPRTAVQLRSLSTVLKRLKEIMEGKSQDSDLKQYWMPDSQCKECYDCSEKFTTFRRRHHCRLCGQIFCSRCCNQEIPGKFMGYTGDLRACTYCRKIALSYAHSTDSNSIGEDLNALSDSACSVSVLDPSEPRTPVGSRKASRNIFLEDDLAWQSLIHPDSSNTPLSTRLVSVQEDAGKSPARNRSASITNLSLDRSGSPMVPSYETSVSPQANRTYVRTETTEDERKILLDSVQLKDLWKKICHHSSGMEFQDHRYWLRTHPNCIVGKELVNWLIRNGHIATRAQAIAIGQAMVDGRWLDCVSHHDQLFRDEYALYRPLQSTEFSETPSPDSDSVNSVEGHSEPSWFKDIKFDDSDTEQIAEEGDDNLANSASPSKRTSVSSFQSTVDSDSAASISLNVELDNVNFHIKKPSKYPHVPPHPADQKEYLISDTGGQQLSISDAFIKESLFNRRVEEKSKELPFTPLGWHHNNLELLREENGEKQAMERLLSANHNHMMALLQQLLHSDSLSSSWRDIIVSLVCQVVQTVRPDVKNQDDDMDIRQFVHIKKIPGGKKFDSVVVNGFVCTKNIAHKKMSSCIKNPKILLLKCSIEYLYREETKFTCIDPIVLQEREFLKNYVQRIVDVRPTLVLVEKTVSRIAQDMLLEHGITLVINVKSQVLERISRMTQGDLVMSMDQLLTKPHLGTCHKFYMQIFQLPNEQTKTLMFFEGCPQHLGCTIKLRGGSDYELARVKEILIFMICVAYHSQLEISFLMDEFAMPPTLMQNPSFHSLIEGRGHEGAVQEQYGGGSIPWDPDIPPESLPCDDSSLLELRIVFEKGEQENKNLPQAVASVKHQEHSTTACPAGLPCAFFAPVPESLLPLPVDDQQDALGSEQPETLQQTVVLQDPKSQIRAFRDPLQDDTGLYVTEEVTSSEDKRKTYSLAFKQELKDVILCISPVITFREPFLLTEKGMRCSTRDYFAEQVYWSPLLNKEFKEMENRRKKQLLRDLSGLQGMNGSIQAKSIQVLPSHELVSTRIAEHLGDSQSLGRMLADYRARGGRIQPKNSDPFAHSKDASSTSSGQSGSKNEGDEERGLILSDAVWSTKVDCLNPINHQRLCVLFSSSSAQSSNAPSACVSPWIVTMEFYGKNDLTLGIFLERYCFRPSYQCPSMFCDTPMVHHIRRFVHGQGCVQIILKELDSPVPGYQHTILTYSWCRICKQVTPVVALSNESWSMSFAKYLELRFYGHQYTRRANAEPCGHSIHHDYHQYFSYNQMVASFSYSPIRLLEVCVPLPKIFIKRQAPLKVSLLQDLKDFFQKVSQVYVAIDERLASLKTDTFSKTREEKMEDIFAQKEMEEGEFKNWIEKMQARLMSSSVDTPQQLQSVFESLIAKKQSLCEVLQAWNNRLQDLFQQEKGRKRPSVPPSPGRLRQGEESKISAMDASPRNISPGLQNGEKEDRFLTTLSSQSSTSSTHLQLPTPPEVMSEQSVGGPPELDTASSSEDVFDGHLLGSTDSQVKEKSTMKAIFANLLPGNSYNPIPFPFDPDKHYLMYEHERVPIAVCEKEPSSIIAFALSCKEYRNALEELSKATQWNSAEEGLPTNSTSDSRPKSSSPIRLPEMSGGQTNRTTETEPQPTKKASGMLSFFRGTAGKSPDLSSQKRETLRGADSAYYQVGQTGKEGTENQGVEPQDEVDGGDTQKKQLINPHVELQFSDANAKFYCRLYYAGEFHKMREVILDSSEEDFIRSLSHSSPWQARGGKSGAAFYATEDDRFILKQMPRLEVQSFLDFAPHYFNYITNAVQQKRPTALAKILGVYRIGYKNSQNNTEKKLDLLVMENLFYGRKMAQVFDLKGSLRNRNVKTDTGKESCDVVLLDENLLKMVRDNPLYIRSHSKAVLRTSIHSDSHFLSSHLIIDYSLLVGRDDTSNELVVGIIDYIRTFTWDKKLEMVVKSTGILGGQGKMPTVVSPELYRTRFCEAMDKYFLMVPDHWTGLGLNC
CDK19, sequence (Q9BWU1 whole entry): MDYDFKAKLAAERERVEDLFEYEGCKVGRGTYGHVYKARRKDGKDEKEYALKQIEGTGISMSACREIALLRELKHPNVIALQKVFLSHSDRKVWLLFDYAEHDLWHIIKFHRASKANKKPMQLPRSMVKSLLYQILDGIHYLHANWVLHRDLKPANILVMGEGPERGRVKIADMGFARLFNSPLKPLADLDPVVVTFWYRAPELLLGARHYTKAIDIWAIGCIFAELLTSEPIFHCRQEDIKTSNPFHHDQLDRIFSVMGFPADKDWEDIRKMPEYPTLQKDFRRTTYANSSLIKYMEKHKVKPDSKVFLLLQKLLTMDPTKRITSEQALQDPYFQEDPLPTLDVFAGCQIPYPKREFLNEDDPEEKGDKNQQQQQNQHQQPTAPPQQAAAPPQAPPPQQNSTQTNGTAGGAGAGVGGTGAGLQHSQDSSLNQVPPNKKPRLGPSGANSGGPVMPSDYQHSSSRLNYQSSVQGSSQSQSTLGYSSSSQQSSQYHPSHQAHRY

| Structure (SMILES) | IC50 (CDK8 [1]) | also measured |
| --- | --- | --- |
| C[C@]12CC[C@H](O)CC1=CC[C@@H]1C2CC[C@]2(C)C(c3ccc4cnccc4c3)=CC[C@@H]12 (some centres unmarked) [Compound 48] | > 6000 nM | – |
| CN(C)[C@H]1CC[C@@]2(C)C(=CCC3[C@@H]4CC[C@H](c5ccc6ccncc6c5)[C@@]4(C)CC[C@@H]32)C1 (stereo in doubt) [Compound 33, (3S,8R,9S,10R,13S,14S)-17-(isoquinolin-7-yl)-N,N,10,13-tetramethyl-2,3,4,7,8,9,10,11,12,13,14,15,16,17-tetradecahydro-1H-cyclopenta[a]phenanthren-3-amine] | < 100 nM | inhibition of S727 phosphorylation of STAT1 [2]: dose-dependent inhibition; kinase selectivity (panel of 468 kinases): highly selective for CDK8 and CDK19; number of interactions greater than 90% inhibition (panel of 468 kinases): 4; inhibition at 10 µM (CDK19): > 90%; inhibition at 10 µM (CDK8 [3]): > 90%; inhibition at 10 µM (NEK1 [4]): > 90%; inhibition at 10 µM (PIKFYVE): > 90%; IC50 (NEK1 [5]): > 10000 nM |
| C[C@]12CC[C@H]3[C@@H](CC=C4C[C@@H](O)CC[C@@]43C)[C@@H]1CC[C@@H]2c1ccc2cnncc2c1 [Compound 9] | > 6000 nM | – |
| CN[C@H]1CC[C@@]2(C)[C@@H](CC[C@@H]3[C@@H]2CC[C@]2(C)[C@@H](c4ccc5ccncc5c4)CC[C@@H]32)C1 [Compound 46, (3S,8R,9S,10S,13S,14S,17S)-17-(isoquinolin-7-yl)-N,10,13-trimethylhexadecahydro-1H-cyclopenta[a]phenanthren-3-amine] | 701 to 2000 nM | – |
| C[C@]12CC[C@H](O)CC1=CC[C@@H]1[C@@H]2CC[C@]2(C)C(c3ccc4cnncc4c3)=CC[C@@H]12 [Compound 3] | > 6000 nM | – |
| CN(C)[C@@H]1CC[C@@]2(C)[C@@H](CC[C@@H]3[C@@H]2CC[C@]2(C)[C@@H](c4ccc5ccncc5c4)CC[C@@H]32)C1 [Compound 25] | < 100 nM | – |
| CN(C)[C@H]1C[C@@]23CC[C@@]4(O2)C(=CC[C@]2(C)C(c5ccc6ccncc6c5)=CC[C@H]24)C=C3[C@@H](O)[C@@H]1O [DCA, dehydrocortistatin A, reference compound] | – | inhibition of S727 phosphorylation of STAT1 [2]: dose-dependent inhibition; IC50 (CDK8 [6]): 17 nM |
| C[C@]12CC[C@H](N3CCOCC3)C[C@@H]1CC[C@@H]1[C@@H]2CC[C@]2(C)[C@@H](c3ccc4ccncc4c3)CC[C@@H]12 [Compound 34, 4-((3S,5S,8R,10S,13S,14S,17S)-17-(isoquinolin-7-yl)-10,13-dimethylhexadecahydro-1H-cyclopenta[a]phenanthren-3-yl)morpholine] | 101 to 200 nM | – |
| C[C@]12CC[C@H](O)CC1=CC[C@@H]1[C@@H]2CC[C@]2(C)C(c3ccc4c(N)n[nH]c4c3)=CC[C@@H]12 [Compound 5] | 701 to 2000 nM | – |
| C[C@]12CC[C@H]3[C@@H](CC=C4C[C@@H](O)CC[C@@]43C)[C@@H]1CC[C@@H]2c1ccc2cn[nH]c2c1 [Compound 13] | > 6000 nM | – |
| C[C@]12CC[C@H]3[C@@H](CC=C4C[C@@H](O)CC[C@@]43C)[C@@H]1CC[C@@H]2c1ccc2[nH]ncc2c1 [Compound 12] | > 6000 nM | – |
| CN(C)[C@H]1CC[C@@]2(C)[C@@H](CC[C@@H]3[C@@H]2CC[C@]2(C)[C@@H](c4ccc5ccncc5c4)CC[C@@H]32)C1 [Compound 23, (3S,8R,9S,10S,13S,14S,17S)-(isoquinolin-7-yl)-N,N,10,13-tetramethylhexadecahydro-1H-cyclopenta[a]phenanthren-3-amine] | < 100 nM | – |
| C[C@]12CC[C@H]3[C@@H](CC=C4C[C@@H](O)CC[C@@]43C)[C@@H]1CC[C@@H]2c1ccc2ccncc2c1 [Compound 8a, (3S,8S,9S,10R,13S,14S,17S)-17-(isoquinolin-7-yl)-10,13-dimethyl-2,3,4,7,8,9,10,11,12,13,14,15,16,17-tetradecahydro-1H-cyclopenta[a]phenanthren-3-ol] | < 100 nM | – |
| C[C@]12CC[C@H](n3ccnn3)C[C@@H]1CC[C@@H]1[C@@H]2CC[C@]2(C)[C@@H](c3ccc4ccncc4c3)CC[C@@H]12 [Compound 39, 7-((3S,8R,9S,10S,13S,14S,17S)-10,13-dimethyl-3-(1H-1,2,3-triazol-1-yl)hexadecahydro-1H-cyclopenta[a]phenanthren-17-yl)isoquinoline] | < 100 nM | – |
| C[C@]12CC[C@H](O)CC1=CC[C@@H]1[C@@H]2CC[C@]2(C)C(c3ccc4[nH]ncc4c3)=CC[C@@H]12 [Compound 6] | > 6000 nM | – |
| C[C@]12CC[C@H](O)CC1=CC[C@@H]1[C@@H]2CC[C@]2(C)C(c3ccc4cn[nH]c4c3)=CC[C@@H]12 [Compound 7] | > 6000 nM | – |
| CN(C)[C@H]1CC[C@@]2(C)[C@@H](CC[C@@H]3[C@@H]2CC[C@]2(C)C(c4ccc5ccncc5c4)=CC[C@@H]32)C1 [Compound 22r, (3S,8R,9S,10S,13S,14S)-17-(isoquinolin-7-yl)-N,N,10,13-tetramethyl-2,3,4,5,6,7,8,9,10,11,12,13,14,15-tetradecahydro-1H-cyclopenta[a]phenanthren-3-amine] | 101 to 200 nM | – |
